From paper PMC5570423, “Structural characterisation of TNRC6A nuclear localisation signal in complex with importin-alpha” (PLoS ONE, 2017)
Where no end group is shown, it is not given here.

Tests used:
[1] = test system: mImpα1ΔIBB; experiment: In vitro GST pull-down with mouse Impα1ΔIBB; type: binding; settings: 100 μg GST-cNLS, 250 μg Impα, glutathione resin, 4°C 1 hr, 20 mM Tris pH7.5, […] NaCl, 1 mM DTT; SDS-PAGE
Procedure: (§1) Glutathione resin (Pierce) was incubated with 100 μg of purified GST-cNLS or GST, and 250 μg of ImpA or 500 μg of ImpB at 4°C for 1 hr. Unbound protein was removed by washing beads 5 times in 500 μL binding buffer, and the bound proteins were eluted in binding buffer supplemented with 10 mM glutathione. The samples were analysed using SDS-PAGE, input lanes correspond to 1% of incubated samples and pull-down lanes correspond to 8% of eluted protein.

[2] = test system: hImpα1ΔIBB; experiment: In vitro GST pull-down with human Impα1ΔIBB; type: binding; settings: 100 μg GST-cNLS, 250 μg Impα, glutathione resin, 4°C 1 hr; SDS-PAGE
Procedure: as §1

[3] = test system: mouse Impβ; experiment: In vitro GST pull-down with mouse Impβ; type: binding; settings: GST-NLS with His-tagged mouse Impβ (500 μg), 4°C 1 hr; S1 Fig
Procedure: as §1
(§2) Pull-downs with GST-NLS or GST-mImpα1 full-length with His-tagged mouse and human Impβ. GST and mImpα1 served as the negative and positive controls, respectively. (EPS) Click here for additional data file.

[4] = test system: human Impβ; experiment: In vitro GST pull-down with human Impβ; type: binding; settings: GST-NLS with His-tagged human Impβ (500 μg), 4°C 1 hr; S1 Fig
Procedure: as §1, §2

[5] = test system: HeLa cells; settings: region comprising residues 1178–1187 of the human protein; cited from earlier work
From the text: hTNRC6A cNLS (^1179[…]^1187; numbering according to isoform 1 and corresponds to ^926[…]^934 in isoform 2; Fig 1A) is located between the Ago-binding and UBA regions of the protein [35]. This motif is strictly conserved between mouse and humans (Fig 1B), is present in bats and hedgehogs, but appears to be absent in fish and insects.

[6] = test system: nuclear accumulation of a fluorescent reporter; settings: template SSGA####AG, Lys/Arg combinations predicted to bind at P2-P5; cited from earlier work
Procedure: A detailed mutational analysis of a template monopartite NLS sequence has been reported, where all possible 16 Lys and/or Arg combinations (SSGA####AG, where # represents either Lys or Arg) predicted to bind at the P2-P5 pockets, were tested for their nuclear import activity.

NLS mutant: GST-TNRC6A cNLS with the four arginine residues substituted to Ala, as previously described (SGKKAAAEA; also: fused to GST (GST not in chain), ends not given here)
binding to mImpα1ΔIBB in GST pull-down [1]: binding was disrupted

P2 mutant: GST-TNRC6A cNLS with mTNRC6A Lys1167 mutated to Ala (SGKARRRER; also: fused to GST (GST not in chain), ends not given here)
binding to mImpα1ΔIBB in GST pull-down [1]: completely abolished binding

SGKKRRRER [GST-TNRC6A cNLS, GST fusion of TNRC6A nuclear localisation signal, residues 1164–1172 of mouse TNRC6A (1179–1187 of human)]
binding to mImpα1ΔIBB in GST pull-down [1]: sufficient to interact | binding to hImpα1ΔIBB in GST pull-down [2]: sufficient to interact | pull-down of mouse Impβ [3]: not sufficient to pull-down | pull-down of human Impβ [4]: not sufficient to pull-down

SGKKRRRER [hTNRC6A cNLS, human TNRC6A cNLS, residues 1179–1187 of isoform 1; strictly conserved with mouse; tested earlier on a GFP reporter]
nuclear localisation of a GFP reporter [5]: sufficient to induce the nuclear localisation

SSGAKRRRAG
nuclear accumulation of a fluorescent reporter [6]: Complete nuclear accumulation
